This note sets out measurements from patent US20080234368A9, “Therapeutic compositions and methods of use” (Trustees of Dartmouth College, priority 1998, published 2008).

Molecules are shown by their SMILES.

The subject of the test is COX-2. Nature of the test: TPA-induced COX-2 in 18Co cells. In kind it is cell-based, human. The source says:
These cells were selected because of the importance of stromal cell COX-2 in colon carcinogenesis (Oshima et al., 1996). […] Although CDDO effectively blocks the induction of COX-2 by agents such as IFN-γ, LPS, TNF-α, and IL-1, CDDO is ineffective when TPA is used as the inducer of COX-2. This has been seen in 18Co cells, as well as in the human mammary epithelial cell line, 184B5/HER (Zhai et al., 1993).

Take `CC1(C)CC[C@]2(C(=O)O)CC[C@]3(C)[C@H](C(=O)C=C4[C@@]5(C)C=C(C#N)C(=O)C(C)(C)[C@@H]5CC[C@]43C)[C@@H]2C1` [Compound 6, 2-cyano-3,12-dioxoolean-1,9-dien-28-oic acid]: the “blocking of COX-2 induction with TPA as inducer” value is listed as “ineffective”.
